How the values were obtained:
corn = test: Test B pre/postemergence corn; type: in vivo, Zea mays
How it was run: (§1)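 Response is a visual 0-to-10 score relative to untreated plants, where 0 means no effect and 10 means complete control, taken twelve to sixteen days after application. Treatments went onto soil at planting and onto foliage of 1- to 4-leaf plants, using a surfactant-containing non-phytotoxic solvent.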

giant foxtail = test: Test B pre/postemergence giant foxtail; type: in vivo, Setaria faberii
How it was run: as §1

wild oat = test: Test B pre/postemergence wild oat; type: in vivo, Avena fatua
How it was run: as §1

wheat = test: Test B pre/postemergence wheat; type: in vivo, Triticum aestivum
How it was run: as §1

blackgrass = test: Test B pre/postemergence blackgrass; type: in vivo, Alopecurus myosuroides
How it was run: as §1

crabgrass = test: Test B pre/postemergence crabgrass; type: in vivo, Digitaria sanguinalis
How it was run: as §1

pigweed = test: Test B pre/postemergence pigweed; type: in vivo, Amaranthus retroflexus
How it was run: as §1

surinam grass = test: Test B pre/postemergence surinam grass; type: in vivo, Brachiaria decumbens
How it was run: as §1

purple nutsedge = test: Test B pre/postemergence purple nutsedge; type: in vivo, Cyperus rotundus
How it was run: as §1

bedstraw = test: Test B pre/postemergence bedstraw; type: in vivo, Galium aparine
How it was run: as §1

sugar beet = test: Test B pre/postemergence sugar beet; type: in vivo, Beta vulgaris
How it was run: as §1

rice = test: Test B flood test rice; type: in vivo, Oryza sativa
How it was run: (§2)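 Read-out is a visual response score from 0 (no effect) to 10 (complete control), assigned by comparison with untreated controls. Treatment was applied at the 2-leaf stage, and plants stayed in the greenhouse for twelve to sixteen days before scoring.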

cocklebur = test: Test B pre/postemergence cocklebur; type: in vivo, Xanthium strumarium
How it was run: as §1

duck salad = test: Test B flood test duck salad; type: in vivo, Heteranthera limosa
How it was run: as §2

soybean = test: Test B pre/postemergence soybean; type: in vivo, Glycine max
How it was run: as §1

velvetleaf = test: Test B pre/postemergence velvetleaf; type: in vivo, Abutilon theophrasti
How it was run: as §1

[1] = Postemergence, Rate 62 g/ha, scale 0 to 10, 0 is no effect, 10 is complete control
[2] = Postemergence, Rate 250 g/ha, scale 0 to 10, 0 no effect, 10 complete control
[3] = Preemergence, Rate 62 g/ha, scale 0 to 10 (0 no effect, 10 complete control)
[4] = Preemergence, Rate 125 g/ha, scale 0 to 10 (0 no effect, 10 complete control)
[5] = Preemergence, Rate 250 g/ha, scale of 0 to 10 where 0 is no effect and 10 is complete control
[6] = Preemergence, Rate 500 g/ha, scale 0 (no effect) to 10 (complete control)
[7] = Rate 125 g/ha, Postemergence, scale 0 to 10, 0 no effect, 10 complete control
[8] = Rate 500 g/ha, Postemergence, scale 0 to 10, 0 no effect, 10 complete control
[9] = Rate 62 g/ha, headed Pre-emergence (flood test species), scale 0 to 10 (0 no effect, 10 complete control)
[10] = Rate 125 g/ha, Pre-emergence, flood test species, scale 0 to 10 where 0 is no effect and 10 is complete control
[11] = Rate 250 g/ha, headed Pre-emergence (flood test species), scale 0 to 10 (0 no effect, 10 complete control)
[12] = Rate 500 g/ha, headed Pre-emergence (flood test species), scale 0 to 10 (0 no effect, 10 complete control)

SMILES: Cc1cccc(C)c1-n1c(=O)on(C(=O)N(Cc2ccccc2)C(C)C)c1=O [Compound 69]
- Corn plant response rating (corn; [1]): 0
- Corn plant response rating (corn; [2]): 0
- Corn plant response rating (corn; [3]): 0
- Plant response rating, Corn (corn; [4]): 0
- Plant response rating, Corn (corn; [5]): 0
- Corn plant response rating (corn; [6]): 0
- Corn plant response rating (corn; [7]): 0
- Corn plant response rating (corn; [8]): 0
- Giant foxtail plant response rating (giant foxtail; [1]): 0
- Giant foxtail plant response rating (giant foxtail; [2]): 0
- Giant foxtail plant response rating (giant foxtail; [3]): 0
- Plant response rating, Giant foxtail (giant foxtail; [4]): 0
- Plant response rating, Giant foxtail (giant foxtail; [5]): 4
- Giant foxtail plant response rating (giant foxtail; [6]): 4
- Giant foxtail plant response rating (giant foxtail; [7]): 0
- Giant foxtail plant response rating (giant foxtail; [8]): 1
- Wild oats plant response rating (wild oat; [1]): 0
- Wild oats plant response rating (wild oat; [2]): 0
- Wild oats plant response rating (wild oat; [3]): 0
- Plant response rating, Wild oats (wild oat; [4]): 0
- Plant response rating, Wild oats (wild oat; [5]): 0
- Wild oats plant response rating (wild oat; [6]): 0
- Wild oats plant response rating (wild oat; [7]): 0
- Wild oats plant response rating (wild oat; [8]): 0
- Wheat plant response rating (wheat; [1]): 0
- Wheat plant response rating (wheat; [2]): 0
- Wheat plant response rating (wheat; [3]): 0
- Plant response rating, Wheat (wheat; [4]): 0
- Plant response rating, Wheat (wheat; [5]): 0
- Wheat plant response rating (wheat; [6]): 0
- Wheat plant response rating (wheat; [7]): 0
- Wheat plant response rating (wheat; [8]): 0
- Blackgrass plant response rating (blackgrass; [1]): 0
- Blackgrass plant response rating (blackgrass; [2]): 0
- Blackgrass plant response rating (blackgrass; [3]): 0
- Plant response rating, Blackgrass (blackgrass; [4]): 0
- Plant response rating, Blackgrass (blackgrass; [5]): 0
- Blackgrass plant response rating (blackgrass; [6]): 0
- Blackgrass plant response rating (blackgrass; [7]): 0
- Blackgrass plant response rating (blackgrass; [8]): 0
- Crabgrass plant response rating (crabgrass; [1]): 0
- Crabgrass plant response rating (crabgrass; [2]): 1
- Crabgrass plant response rating (crabgrass; [3]): 0
- Plant response rating, Crabgrass (crabgrass; [4]): 0
- Plant response rating, Crabgrass (crabgrass; [5]): 2
- Crabgrass plant response rating (crabgrass; [6]): 4
- Crabgrass plant response rating (crabgrass; [7]): 0
- Crabgrass plant response rating (crabgrass; [8]): 1
- Redroot pigweed plant response rating (pigweed; [1]): 0
- Redroot pigweed plant response rating (pigweed; [2]): 0
- Redroot pigweed plant response rating (pigweed; [3]): 0
- Plant response rating, Redroot pigweed (pigweed; [4]): 0
- Plant response rating, Redroot pigweed (pigweed; [5]): 0
- Redroot pigweed plant response rating (pigweed; [6]): 0
- Redroot pigweed plant response rating (pigweed; [7]): 0
- Redroot pigweed plant response rating (pigweed; [8]): 0
- B. signalgrass plant response rating (surinam grass; [1]): 0
- B. signalgrass plant response rating (surinam grass; [2]): 0
- B. signalgrass plant response rating (surinam grass; [3]): 0
- Plant response rating, B. signalgrass (surinam grass; [4]): 0
- Plant response rating, B. signalgrass (surinam grass; [5]): 0
- B. signalgrass plant response rating (surinam grass; [6]): 0
- B. signalgrass plant response rating (surinam grass; [7]): 0
- Nutsedge plant response rating (purple nutsedge; [1]): 0
- Nutsedge plant response rating (purple nutsedge; [2]): 0
- Nutsedge plant response rating (purple nutsedge; [3]): 0
- Plant response rating, Nutsedge (purple nutsedge; [4]): 0
- Plant response rating, Nutsedge (purple nutsedge; [5]): 0
- Nutsedge plant response rating (purple nutsedge; [6]): 0
- Nutsedge plant response rating (purple nutsedge; [7]): 0
- Nutsedge plant response rating (purple nutsedge; [8]): 0
- Bedstraw plant response rating (bedstraw; [1]): 0
- Bedstraw plant response rating (bedstraw; [2]): 5
- Bedstraw plant response rating (bedstraw; [3]): 0
- Plant response rating, Bedstraw (bedstraw; [4]): 0
- Plant response rating, Bedstraw (bedstraw; [5]): 0
- Bedstraw plant response rating (bedstraw; [6]): 0
- Bedstraw plant response rating (bedstraw; [7]): 4
- Bedstraw plant response rating (bedstraw; [8]): 6
- Sugarbeets plant response rating (sugar beet; [1]): 0
- Sugarbeets plant response rating (sugar beet; [2]): 0
- Sugarbeets plant response rating (sugar beet; [3]): 0
- Plant response rating, Sugarbeets (sugar beet; [4]): 0
- Plant response rating, Sugarbeets (sugar beet; [5]): 0
- Sugarbeets plant response rating (sugar beet; [6]): 0
- Sugarbeets plant response rating (sugar beet; [7]): 0
- Sugarbeets plant response rating (sugar beet; [8]): 0
- Rice plant response rating (rice; [9]): 0
- Rice plant response rating (rice; [10]): 0
- Rice plant response rating (rice; [11]): 0
- Plant response rating, Rice (rice; [12]): 0
- Cocklebur plant response rating (cocklebur; [1]): 0
- Cocklebur plant response rating (cocklebur; [2]): 0
- Cocklebur plant response rating (cocklebur; [3]): 0
- Plant response rating, Cocklebur (cocklebur; [4]): 0
- Plant response rating, Cocklebur (cocklebur; [5]): 0
- Cocklebur plant response rating (cocklebur; [6]): 0
- Cocklebur plant response rating (cocklebur; [7]): 0
- Cocklebur plant response rating (cocklebur; [8]): 0
- Ducksalad plant response rating (duck salad; [9]): 0
- Ducksalad plant response rating (duck salad; [10]): 0
- Ducksalad plant response rating (duck salad; [11]): 0
- Plant response rating, Ducksalad (duck salad; [12]): 0
- Soybean plant response rating (soybean; [1]): 2
- Soybean plant response rating (soybean; [2]): 2
- Soybean plant response rating (soybean; [3]): 0
- Plant response rating, Soybean (soybean; [4]): 0
- Plant response rating, Soybean (soybean; [5]): 0
- Soybean plant response rating (soybean; [6]): 0
- Soybean plant response rating (soybean; [7]): 2
- Soybean plant response rating (soybean; [8]): 3
- Velvetleaf plant response rating (velvetleaf; [1]): 0
- Velvetleaf plant response rating (velvetleaf; [2]): 0
- Velvetleaf plant response rating (velvetleaf; [3]): 0
- Plant response rating, Velvetleaf (velvetleaf; [4]): 0
- Plant response rating, Velvetleaf (velvetleaf; [5]): 0
- Velvetleaf plant response rating (velvetleaf; [6]): 0
- Velvetleaf plant response rating (velvetleaf; [7]): 0
- Velvetleaf plant response rating (velvetleaf; [8]): 2

Source: US6737383B1, “Herbicidal oxadiazolidines” (priority 1999, dated 2004)
